Laboratory results as given in patent publication US20260132128A1, “COMPOUND FOR RECOVERING P53 MUTATION FUNCTION AND USE THEREOF” (SHENZHEN ZHONGGE BIOLOGICAL TECHNOLOGY CO., LTD., priority 2022, published 2026).
Where two headings read alike, the source gives them in different places. Marks after values point to notes of the source that are not given here.

Key:
[1] = biological target: T1, p53 Y220C (Homo sapiens, UniProt P04637, P309S/R273H/Y220C); assay: DNA binding test (HTRF): binding of P53Y220C protein to DNA; assay type: biochemical; conditions: HTRF, activation of p53 Y220C (aa 94-312) binding to biotin DNA
T1 construct: a truncated mutant containing only amino acids 94-312 of p53; made in house; host or cells: E. coli

[2] = biological target: T2, p53 Y220C (Homo sapiens, UniProt P04637, Y220C); assay: as above; assay type: biochemical; conditions: multiple ratio of EC50 of the compound to the reference compound, DNA binding test
T2 construct: a truncated mutant containing only amino acids 94-312 of p53; made in house; host or cells: E. coli

[3] = tested on: NUGC-3 cells; assay: NUGC-3 cell proliferation assay (CTG); assay type: cell-based, human; conditions: for GI50: Homo sapiens, NUGC-3, 144 h, 6 days, CTG; for Compound GI50 (nM)/Reference compound GI50 (nM): multiple ratio of GI50 of the compound to the reference compound
Procedure, shortened: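 NUGC-3 cells (250/well), plated overnight, were exposed 6 days at 37° C to compound, 10 doses of 1:3 dilutions from 10 μM top final. Viability by CellTiter-Glo luminescence; inhibition relative to 0.1% DMSO and blank, GI50 from variable-slope nonlinear fit.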

[4] = biological target: T3, CYP 3A4 (Homo sapiens, UniProt P08684); assay: CYP 3A4 time-dependent inhibition test; assay type: in vitro ADME; conditions: midazolam substrate
T3 construct: purchased BioIVT X008067
Procedure: CYP 3A4 and the test compound or mifepristone of various concentrations were added to a 96-deep well plate for pre-incubation. The plate was placed in a water bath and preheated at 37° C. for 5 min. For the 0 min pre-incubation samples, midazolam substrate was added to the incubation plate, then 10 mM NADPH solution was added, and the reaction was carried out in a 37° C. water bath for 5 min; for the 30 min pre-incubation samples with NADPH, 10 mM NADPH solution was added to the incubation plate, pre-incubated in a 37° C. water bath for 30 min, and then midazolam substrate was added and reacted in a 37° C. water bath for 5 min; for the 30 min pre-incubation samples without NADPH, the incubation plate was pre-incubated in a 37° C. water bath for 30 min, then midazolam substrate was added, 10 mM NADPH solution was added, and the reaction was carried out in a 37° C. water bath for 5 min. After the reaction was completed, the quenching solution (500 nM tolbutamide (Bide Pharmaceuticals, Cat. No. BD154332) and 10 nM terfenadine (Sigma, Cat. No. T96532)) were added to quench the reaction, and the plate was centrifuged at 3,220 g for 40 min at 4° C. The supernatant was pipetted into a new plate, the supernatant was diluted with pure water and mixed well, and the sample was analyzed using UPLC-MS/MS.

[5] = Pharmacokinetic test in mice; assay type: in vivo; conditions: male, ICR, mouse, plasma
Procedure: ICR male mice (15 to 35 g, 5 to 10 weeks old, Shanghai Xipuer-Bikai Experimental Animal Co., Ltd.) were selected as test animals in this study. The LC-MS/MS method was used to quantitatively determine drug concentrations in the plasma of mice at different time points after intravenous injection or oral gavage administration of the test compound to evaluate the pharmacokinetic characteristics of the compound in mice. The clear solution of the test compound was injected into ICR mice via the tail vein (without fasting, solvent: 40% hydroxypropyl-β-cyclodextrin) and administered to ICR mice by oral gavage (fasting for 10 to 14 hours, free drinking water, solvent: 0.2% hydroxypropyl cellulose, 0.5% Tween 80). For intravenous administration, blood was collected from the submandibular venous plexus at 0.033, 0.083, 0.25, 0.5, 1, 2, 4, 8, and 24 hours after administration, placed in an anticoagulant tube with EDTA-K2 (Jiangsu Kangjian Medical Supplies Co., Ltd.), mixed, and centrifuged at 2-8° C., 6800 g for 6 minutes to obtain plasma; for oral gavage administration, blood was collected from the submandibular venous plexus at 0.083, 0.25, 0.5, 1, 2, 4, 6, 8, and 24 hours after administration, placed in an anticoagulant tube with EDTA-K2 (Jiangsu Kangjian Medical Supplies Co., Ltd.), mixed, and centrifuged at 2-8° C., 6800 g for 6 minutes to obtain plasma. The blood drug concentration was determined by LC-MS/MS, and the relevant pharmacokinetic parameters were calculated by the non-compartmental linear logarithmic trapezoidal method using Phoenix WinNonlin™ Version 7.0 (Pharsight, USA) pharmacokinetic software.

[6] = Liver microsome stability test, human (HLM); assay type: in vitro ADME; conditions: human liver microsomes, NADPH; read-out: T1/2 (min) Human
Procedure: (§1) The 10 mM test compound/ketanserin (Energy Chemical, Cat. No. E020711) stock solution was diluted with acetonitrile to 0.5 mM compound/reference compound. The frozen 100 mM NADPH (MCE, Cat. No. HYF003/CS-4998) was diluted with phosphate buffer solution to a concentration of 6 mM; 20 mg/mL HLM (BioIVT, Cat. No. X008067) or MLM (BioIVT, Cat. No. M00501) was diluted with phosphate buffer solution to a concentration of 0.75 mg/ml, and added to a 96-round well plate, respectively, and shaken evenly on an oscillator at 600 rpm. The above oscillated samples were pipetted 3 times with an electric pipettor and dispensed into a new 96-well plate (containing NADPH group (n=2), NADPH-free group was added at 0 and 45 min (n=1)), and there were a total of 5 groups of 0, 5, 15, 30 and 45 min, respectively. After pre-incubation of the 5 groups of samples at 37° C. for 5 min, glacial acetonitrile was quickly added to the 0 min group for precipitation, and after rapid vortexing, K-Buffer or NADPH was added with an electric pipettor. The remaining groups were sequentially added with 6 mM NADPH to start the reaction in the order of 45, 30, 15 and 5 min samples, and K-Buffer solution was added to the NADPH-free group. After mixing at 1000 rpm in an oscillating mixer for 10 s, they were continuously incubated at 37° C. for the corresponding time. The reaction was terminated by quickly adding glacial acetonitrile internal standard using an electric pipettor; after vortexing at 900 rpm for 10 seconds, heat sealing was performed, oscillation was performed on an oscillator for 10 minutes, centrifugation was performed at 4000 rpm for 50 minutes, the supernatant was collected and diluted with pure water, and the test compound and the reference compound were quantified by LC-MS/MS analysis.

[7] = Liver microsome stability test, mouse (MLM); assay type: in vitro ADME; conditions: mouse liver microsomes, NADPH; read-out: T1/2 (min) Mouse
Procedure: as §1

[8] = tested on: Caco-2 cells; assay: Caco-2 cell permeability test; assay type: in vitro ADME; conditions: Caco-2, 10 μM, 120 min
Procedure: Caco-2 cells (ATCC, Cat. No. HTB-37) were inoculated to a 96-well plate (Corning HTS Transwell, Cat. No. 3391) at 1.25×10^5/cm2, and the culture medium (DMEM+10% FBS+1% Penicillin-Streptomycin Liquid (100×)+1% NEAA) was replaced every 3 to 4 days. The plate was placed in an incubator at 37° C. with 5% CO2 until a confluent cell monolayer was formed after 21 to 28 days. Before the transport experiment, the culture medium was removed from the cell culture plate, and the plate was washed twice with pre-warmed HBSS buffer (10 mM HEPES, pH 7.4), and 100 μL of HBSS buffer was added to each well. After incubation at 37° C. for 30 minutes, the TEER value was measured using a cell resistance meter (Millicell-ERS2) to confirm the integrity and density of the monolayer cells. The HBSS buffer was discarded, the upper plate containing the cell monolayer membrane was transferred to the corresponding receiving plate, 10 mM test compound stock solution was diluted to a concentration of 10 μM with HBSS transport buffer containing 0.5% BSA, and it was added to the apical side (A side) and basolateral side (B side), respectively. Incubation was carried out for 120 min at 37° C., 5% CO2, and 95% relative humidity, and the permeation of the test compound from A side to B side or from B side to A side and the efflux rate of the compound were determined. The test compound and the reference compound were quantified by LC-MS/MS analysis based on the peak area ratio of analyte/internal standard. The apparent permeability coefficient Papp (cm/s) was calculated using the following formula:
[formula] • wherein, dCr/dt represented the functional relation between cumulative concentration of compound in receptor compartment and time; V represented the volume of solution in receptor compartment (0.1 mL at apical side, and 0.25 mL at basolateral side); A represented the transport surface area, i.e., the monolayer cell area was 0.0804 cm^2; CO represented the initial concentration of compound in donor compartment.
The efflux ratio was calculated using the following formula: […]
The percent recovery was calculated using the following formula:
[formula] [formula] • wherein, Vd represented the volume of donor compartment (0.1 mL on the apical side and 0.25 mL on the basolateral side); C and Cr represented the final concentrations of the transported compound in the donor and receptor compartment, respectively; Cc represented the compound concentration in cell lysate; Vc represented the volume of insert well (which was 0.1 mL in this experiment).

[9] = tested on: BxPC-3 cells; assay: BxPC-3 cell proliferation test (CTG); assay type: cell-based; conditions: Homo sapiens, 144 h, 6 days
Procedure: To detect the inhibitory effects of the aforementioned compounds on the proliferation ability of BxPC-3 cells, 125 BxPC-3 cells (ATCC®CRL-1687) were seeded into a 384-well plate (Corning 3765), 35 μL per well, and placed in a constant temperature incubator at 37° C. and 5% CO2 overnight. Then, 40 nL of the compound was added to the 384-well plate using an Echo 655 Liquid Handler, with a maximum final concentration of 10 μM, 1:3 serial dilution, and in a total of 10 doses. Incubation was performed at 37° C., 5% CO2 for 6 days. The plate was taken out from the incubator and equilibrated at room temperature for 10 minutes. 20 μL of CTG (Promage G7572) was added to each well of the plate according to the platemap. The plate was centrifuged at 1000 rpm for 1 minute. The lysis of cells was induced by mixing on a shaker for 2 minutes. The plate was centrifuged at 1000 rpm for 1 minute. Incubation was performed at room temperature for 10 minutes to stabilize luminescence signals. Luminescence values were recorded by Envision (PerkinElmer 2105-0020). GraphPad 9.0 was used to fit the inhibition rate and compound concentration into a nonlinear regression curve (dose response-variable slope) to calculate GI50, inhibition rate={1−(A−B)/(C−B)}*100%, A=signal value of compound; B=average signal of blank control; C=average signal of negative control (wherein the negative control was 0.1% DMSO).

[10] = 0 min pre-incubation, read-out: IC50 (μM) 0 min
[11] = 30 min pre-incubation with NADPH, read-out: IC50 (μM) 30 min, with NADPH
[12] = 30 min pre-incubation without NADPH, read-out: IC50 (μM) 30 min, without NADPH

T3 sequence (P08684 whole entry): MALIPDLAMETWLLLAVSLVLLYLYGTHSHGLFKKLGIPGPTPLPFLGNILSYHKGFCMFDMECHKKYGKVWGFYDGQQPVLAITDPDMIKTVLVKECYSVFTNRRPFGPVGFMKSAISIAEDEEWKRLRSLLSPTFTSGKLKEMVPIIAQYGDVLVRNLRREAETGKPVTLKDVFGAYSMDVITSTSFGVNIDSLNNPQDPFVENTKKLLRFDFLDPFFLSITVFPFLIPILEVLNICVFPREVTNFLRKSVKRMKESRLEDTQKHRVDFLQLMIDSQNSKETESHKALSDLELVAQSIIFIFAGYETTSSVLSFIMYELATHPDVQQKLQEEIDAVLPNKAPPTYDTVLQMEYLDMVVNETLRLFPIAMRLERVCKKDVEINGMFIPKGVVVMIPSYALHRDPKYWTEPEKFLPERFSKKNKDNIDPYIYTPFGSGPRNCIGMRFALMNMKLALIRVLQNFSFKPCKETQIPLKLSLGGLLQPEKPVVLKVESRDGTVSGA

Structure (SMILES) | EC50 [1] | Compound EC50 (nM)/Reference compound EC50 (nM) [2] | GI50 [3] | Compound GI50 (nM)/Reference compound GI50 (nM) [3] | IC50 [4, 10] | IC50 [4, 11] | IC50 [4, 12] | AUC ([5]; 25 mg/kg, po 25 mpk) | Cmax ([5]; 25 mg/kg, po 25 mpk) | clearance ([5]; 2.5 mg/kg, iv 2.5 mpk) | half-life [6] | half-life [7] | Efflux Ratio [8] | Papp A to B ([8]; A to B) | Papp B to A ([8]; B to A) | GI50 [9]
[2H]C([2H])([2H])NC(=O)c1ccc(NCC#Cc2nc3c(NC4CCC(N5CCOCC5)CC4F)cccn3c2CC(F)(F)F)c(OC([2H])([2H])[2H])c1 (single isomer, unassigned) [Compound 70d] | < 100 nM | A (A: EC50 of the compound≤EC50 of the reference compound) | < 1000 nM | A (A: GI50 of the compound ≤ GI50 of the reference compound) | 5.95 µM | 1.91 µM | 6.65 µM | 59700 ng·h/mL | 13100 ng/mL | 11 mL/min/kg |  |  |  |  |  | 
CNC(=O)c1ccc(NCC#Cc2cc3c(N[C@@H]4CCN(C)C[C@@H]4F)cccc3n2CC(F)(F)F)c(OC)c1 [Reference compound, reference compound] |  |  |  |  | 3.24 µM | 0.58 µM | 2.55 µM |  |  |  | 24.9 min | 17.1 min |  |  |  | 
COc1cc(S(C)(=O)=O)ccc1NCC#Cc1nc2c(NC3CC[C@@H](N4CC5(COC5)C4)C[C@@H]3F)cccn2c1CC(F)(F)F (stereo partly drawn) [Compound 48] |  | B (B: EC50 of the reference compound<EC50 of the compound≤3.0*EC50 of the reference compound) |  | B (B: GI50 of the reference compound < GI50 of the compound ≤ 3.0 * GI50 of the reference compound) |  |  |  |  |  |  |  |  | 2.58 | 2.50 10^−6 cm/s | 6.43 10^−6 cm/s | 
CNC(=O)c1ccc(NCC#Cc2cc3c(NC4CCC(N5CC6(COC6)C5)CC4F)cccn3c2CC(F)(F)F)c(OC)c1 (single isomer, unassigned) [Compound 65d] | < 100 nM | B (B: EC50 of the reference compound<EC50 of the compound≤3.0*EC50 of the reference compound) | < 1000 nM | B (B: GI50 of the reference compound < GI50 of the compound ≤ 3.0 * GI50 of the reference compound) |  |  |  |  |  |  | 65.3 min | 16.9 min |  |  |  | < 1000 nM
